The source of these data is patent US12583895B2, “Polypeptides for restoring endothelial function and methods of use thereof” (Vanderbilt University, priority 2019, dated 2026).

The subject of assay [1] is rat aorta. The assay can be described thus: Carbachol-induced relaxation of anisomycin-treated rat aorta. Format: cell-based. To be noted: rat aorta; anisomycin 200 μM, 1 h. The protocol:
(§1) RA rings were suspended in a muscle bath and incubated with either buffer alone (Ctrl), Aniso (200 μM) for 1 h, or NiPp (500 μM) for 30 min followed by Aniso (200 μM) for 1 h. […] Proteins were extracted […] immunoblotted to examine p38MAPK phosphorylation. Quantification of relative phosphorylation to total p38MAPK level is shown. n=10, *p<0.05 in one-way ANOVA with Tukey post-test. NiPp restores endothelial dysfunction and reduced p38 MAPK phosphorylation induced by anisomycin in RA.
RA rings were suspended in a muscle bath and incubated with either buffer alone (Ctrl), Aniso (200 μM) for 1 h, or NiPp (500 μM) for 30 min followed by Aniso (200 μM) for 1 h. […] The force generated was determined and was adjusted to the weight and length of the tissue. Representative tracings from 1 out of 6 different rats are shown. […] Proteins were extracted and phosphorylation of p38 MAPK was determined by Western blot analysis. […] Data are expressed as mean±SD. […]
This produced the maximal force tension relationship as previously described. […] Contractile responses were defined by stress, calculated using force generated by tissues as follows: stress (×10^5 N/m^2)=force (g)×0.0987/area, where area=wet weight (mg)/at maximal length (mm)]/1.055.
Relaxation was calculated as percent change in stress compared to the maximal PE-induced contraction (set as 100%). […]

Assay [2] concerns p38 MAPK phosphorylation. Kind of assay: p38 MAPK phosphorylation (Western blot) in anisomycin-treated rat aorta. Type of assay: cell-based. The settings on record: anisomycin 200 μM, 1 h. The procedure: as §1
RA rings were suspended in a muscle bath and incubated with either buffer alone (Ctrl), Aniso (200 μM) for 1 h, or NiPp (500 μM) for 30 min followed by Aniso (200 μM) for 1 h. […] The force generated was determined and was adjusted to the weight and length of the tissue. […] Proteins were extracted and phosphorylation of p38 MAPK was determined by Western blot analysis. […] Data are expressed as mean±SD.
p38 MAPK activation with Anisomycin. […] After treatments, endothelial-dependent relaxation was determined or tissues were snap-frozen for Western blot analysis.
Western blot Analysis. […] The protein-antibody complexes were visualized and quantified using the Odyssey Infrared Imaging System. Phosphorylation was calculated as a ratio of the phosphorylated protein to total protein and was then normalized to the untreated tissues (Ctrl) with the control value set as 1.0.
On the technique in general: Immunoblotting shows a protein as a band on a membrane.

In the case of `COc1ccc(C[C@H]2NC[C@H](O)[C@H]2OC(C)=O)cc1` [Anisomycin, anisomycin, reference compound], the “effect of anisomycin alone on endothelial dependent relaxation” value in assay [1] is listed as “impaired”. Besides, in assay [2], the “effect of anisomycin alone on phosphorylation of p38 MAPK” value was “increases”.
